Values belong to the compound of their own block, whether it stands above or below them.
Key:
[1] = target: T1, Polyunsaturated fatty acid 5-lipoxygenase (Rattus norvegicus, UniProt P12527); test: In vitro inhibition of RBL-1 5-lipoxygenase; Value ranges from 1.8-2.8; type: cell-based
T1 sequence (P12527 whole entry): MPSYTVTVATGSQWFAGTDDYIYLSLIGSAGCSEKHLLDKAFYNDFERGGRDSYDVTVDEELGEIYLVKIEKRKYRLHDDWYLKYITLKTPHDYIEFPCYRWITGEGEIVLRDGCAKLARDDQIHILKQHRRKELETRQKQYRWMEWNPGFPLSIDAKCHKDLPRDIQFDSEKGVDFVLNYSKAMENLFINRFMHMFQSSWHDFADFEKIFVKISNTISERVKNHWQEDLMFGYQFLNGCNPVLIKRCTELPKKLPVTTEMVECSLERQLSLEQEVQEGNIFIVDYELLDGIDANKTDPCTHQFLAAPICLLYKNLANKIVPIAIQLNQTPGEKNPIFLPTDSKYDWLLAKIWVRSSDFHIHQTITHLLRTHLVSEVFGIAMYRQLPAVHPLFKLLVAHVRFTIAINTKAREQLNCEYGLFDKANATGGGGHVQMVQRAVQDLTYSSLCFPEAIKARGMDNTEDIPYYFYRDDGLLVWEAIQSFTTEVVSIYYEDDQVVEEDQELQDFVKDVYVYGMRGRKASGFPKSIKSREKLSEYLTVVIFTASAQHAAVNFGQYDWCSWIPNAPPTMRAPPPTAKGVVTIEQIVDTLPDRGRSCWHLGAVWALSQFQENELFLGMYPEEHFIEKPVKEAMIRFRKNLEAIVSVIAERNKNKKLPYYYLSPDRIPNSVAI

Rattus norvegicus [2] = test: (§1) In vivo activity against the release of SRS(slow releasing substance)-A in a rat passive intraperitoneally; type: functional; design: concentration or dose not given beside the values
[3] = target: T1, Polyunsaturated fatty acid 5-lipoxygenase; test: In vitro inhibition of RBL-1 5-lipoxygenase; type: cell-based
[4] = target: T1, Polyunsaturated fatty acid 5-lipoxygenase; test: In vitro inhibition of RBL-1 5-lipoxygenase; Value ranges from 1.4-3.2; type: cell-based
[5] = target: T1, Polyunsaturated fatty acid 5-lipoxygenase; test: In vitro inhibition of RBL-1 5-lipoxygenase; Value ranges from 1.0-2.4; type: cell-based
[6] = target: T1, Polyunsaturated fatty acid 5-lipoxygenase; test: In vitro inhibition of RBL-1 5-lipoxygenase; Value ranges from 1.0-1.7; type: cell-based
[7] = target: T1, Polyunsaturated fatty acid 5-lipoxygenase; test: In vitro inhibition of RBL-1 5-lipoxygenase; Value ranges from 4.9-11.6; type: cell-based
Rattus norvegicus [8] = test: Inhibition of monocyte accumulation (exudate volume) in a rat pleural exudate model of inflammation at 45 ug administered perorally; type: functional
Rattus norvegicus [9] = test: Inhibition of monocyte accumulation (DNA content) in a rat pleural exudate model of inflammation at 45 ug administered perorally; type: functional
[10] = target: T1, Polyunsaturated fatty acid 5-lipoxygenase; test: In vitro inhibition of RBL-1 5-lipoxygenase; Value ranges from 1.7-2.6; type: cell-based
Rattus norvegicus [11] = test: as §1; type: functional
[12] = target: T1, Polyunsaturated fatty acid 5-lipoxygenase; test: In vitro inhibition of RBL-1 5-lipoxygenase; Value ranges from 2.46-2.63; type: cell-based
[13] = target: T2, Polyunsaturated fatty acid 5-lipoxygenase (Rattus norvegicus) (UniProt P12527); test: In vitro inhibition of RBL-1 5-lipoxygenase at 20 uM; type: cell-based
T2 sequence (whole entry): T1 sequence (P12527 whole entry)

[14] = target: T1, Polyunsaturated fatty acid 5-lipoxygenase; test: In vitro inhibition of RBL-1 5-lipoxygenase; Value ranges from 1.9-2.4; type: cell-based
[15] = target: T1, Polyunsaturated fatty acid 5-lipoxygenase; test: In vitro inhibition of RBL-1 5-lipoxygenase; Value ranges from 7.5-11.8; type: cell-based
[16] = target: T1, Polyunsaturated fatty acid 5-lipoxygenase; test: In vitro inhibition of RBL-1 5-lipoxygenase; Value ranges from 1.0-1.5; type: cell-based
[17] = target: T1, Polyunsaturated fatty acid 5-lipoxygenase; test: In vitro inhibition of RBL-1 5-lipoxygenase; Value ranges from 1.8-5.7; type: cell-based
[18] = target: T1, Polyunsaturated fatty acid 5-lipoxygenase; test: In vitro inhibition of RBL-1 5-lipoxygenase; Value ranges from 1.1-1.6; type: cell-based
[19] = target: T1, Polyunsaturated fatty acid 5-lipoxygenase; test: In vitro inhibition of RBL-1 5-lipoxygenase; Value ranges from 0.4-2.2; type: cell-based
[20] = target: T1, Polyunsaturated fatty acid 5-lipoxygenase; test: In vitro inhibition of RBL-1 5-lipoxygenase; Value ranges from 3.3-3.5; type: cell-based
[21] = target: T1, Polyunsaturated fatty acid 5-lipoxygenase; test: In vitro inhibition of RBL-1 5-lipoxygenase; Value ranges from 1.3-2.8; type: cell-based
[22] = target: T1, Polyunsaturated fatty acid 5-lipoxygenase; test: In vitro inhibition of RBL-1 5-lipoxygenase; Value ranges from 3.8-7.1; type: cell-based
[23] = target: T1, Polyunsaturated fatty acid 5-lipoxygenase; test: In vitro inhibition of RBL-1 5-lipoxygenase; Value ranges from […]; type: cell-based
Rattus norvegicus [24] = test: Inhibition of monocyte accumulation (exudate volume) in a rat pleural exudate model of inflammation at 24 ug/kg administered perorally; type: functional; conditions: po
Rattus norvegicus [25] = test: Inhibition of monocyte accumulation (exudate volume) in a rat pleural exudate model of inflammation at 3 ug/kg administered perorally; type: functional; conditions: po
Rattus norvegicus [26] = test: Inhibition of monocyte accumulation (exudate volume) in a rat pleural exudate model of inflammation at 6 ug/kg administered perorally; type: functional; conditions: po
[27] = target: T1, Polyunsaturated fatty acid 5-lipoxygenase; test: In vitro inhibition of RBL-1 5-lipoxygenase; Value ranges from 0.9-4.0; type: cell-based
[28] = target: T1, Polyunsaturated fatty acid 5-lipoxygenase; test: In vitro inhibition of RBL-1 5-lipoxygenase; Value ranges from 4.0-6.4; type: cell-based
[29] = target: T1, Polyunsaturated fatty acid 5-lipoxygenase; test: In vitro inhibition of RBL-1 5-lipoxygenase; Value ranges from 0.3-1.6; type: cell-based

- IC50 [1]: 2.3 µM
SMILES: Cc1ccc(O)c2[nH]c(Cc3cccc4ccccc34)nc12

- IC50 [3]: 2 µM
SMILES: CC1=C(C)C(=O)C(CCCCC#CCCCC#CCO)=C(C)C1=O [DOCEBENONE]
- Inhibition (Rattus norvegicus [2]): 77%

- IC50 [4]: 2.2 µM
SMILES: COc1ccc(-c2nc3c(C)ccc(O)c3[nH]2)cc1

- IC50 [5]: 1.7 µM
SMILES: COc1cccc(Cc2nc3c(C)ccc(O)c3[nH]2)c1

- IC50 [6]: 1.3 µM
SMILES: Cc1ccc(O)c2[nH]c(-c3ccc(N(C)C)cc3)nc12

- IC50 [7]: 6.9 µM
SMILES: Cc1ccc(O)c2[nH]c(Cc3ccc(O)cc3)nc12.Cl
- Inhibition (Rattus norvegicus [2]): 58%

- IC50 [3]: ~10 µM
SMILES: CCCc1nc2c(C)ccc(O)c2[nH]1

SMILES: C[C@@H]1C[C@H]2[C@@H]3CCC4=CC(=O)C=C[C@]4(C)[C@@]3(F)[C@@H](O)C[C@]2(C)[C@@]1(O)C(=O)CO [DEXAMETHASONE]
- Inhibition (Rattus norvegicus [8]): 80%
- Inhibition (Rattus norvegicus [9]): 71%

- IC50 [10]: 2.1 µM
SMILES: COc1ccc(Cc2nc3c(C)ccc(O)c3[nH]2)cc1.Cl
- Inhibition (Rattus norvegicus [11]): 58%

- IC50 [3]: 20 µM
SMILES: Oc1cccc2[nH]c(Cc3ccccc3)nc12

- IC50 [12]: 2.54 µM
SMILES: Cc1ccc(Cc2nc3c(O)ccc(C)c3[nH]2)cc1

- inhibition [13]: > 90%
SMILES: Cc1ccc(O)c2[nH]c(Cc3ccc4ccccc4c3)nc12

- IC50 [3]: 20 µM
SMILES: COc1ccc(Cc2nc3c(O)cccc3[nH]2)cc1

- inhibition [13]: > 90%
SMILES: Cc1ccc(O)c2[nH]c(-c3cccc(C(F)(F)F)c3)nc12

- IC50 [14]: 2.1 µM
SMILES: Cc1ccc(O)c2[nH]c(Cc3cccs3)nc12

- IC50 [15]: 9.7 µM
SMILES: COc1cc(Cc2nc3c(C)ccc(O)c3[nH]2)cc(OC)c1OC.Cl
- Inhibition (Rattus norvegicus [2]): 59%

- IC50 [16]: 1.2 µM
SMILES: Cc1ccc(O)c2[nH]c(-c3ccccc3)nc12

- IC50 [17]: 3.3 µM
SMILES: Cc1ccc(O)c2[nH]c(-c3ccco3)nc12

SMILES: O=C1CCN(c2ccccc2)N1 [PHENIDONE]
- Inhibition (Rattus norvegicus [2]): 70%

- IC50 [18]: 1.3 µM
SMILES: Cc1cc(C(C)(C)C)c(O)c2[nH]c(Cc3ccccc3)nc12

SMILES: NC1=NN(c2cccc(C(F)(F)F)c2)CC1 [BW-755C]
- Inhibition (Rattus norvegicus [2]): 25%

- IC50 [19]: 1.2 µM
SMILES: Cc1ccc(O)c2nc(Cc3ccccc3)[nH]c12

- IC50 [20]: 3.4 µM
SMILES: COc1ccccc1Cc1nc2c(C)ccc(O)c2[nH]1.Cl
- Inhibition (Rattus norvegicus [2]): 64%

SMILES: CC(Cc1ccc(O)c(O)c1)C(C)Cc1ccc(O)c(O)c1 (stereo not given) [NORDIHYDROGUAIARETIC ACID]
- Inhibition (Rattus norvegicus [2]): 64%

- IC50 [21]: 2.1 µM
SMILES: Cc1ccc(O)c2[nH]c(CCc3ccccc3)nc12

- IC50 [22]: 5.2 µM
SMILES: COc1ccc(Cc2nc3c(C)ccc(O)c3[nH]2)cc1OC.Cl
- Inhibition (Rattus norvegicus [2]): 55%

SMILES: CCOc1ccc(Cc2nc3c(C)ccc(O)c3[nH]2)cc1
- IC50 [23]: 3 µM

SMILES: Cc1cc(C(C)(C)C)c(O)c2[nH]c(C(F)(F)F)nc12
- inhibition in vivo at 0.024 mg/kg (Rattus norvegicus [24]): 48%
- inhibition in vivo at 0.003 mg/kg (Rattus norvegicus [25]): 52%
- inhibition in vivo at 0.006 mg/kg (Rattus norvegicus [26]): 49%

- IC50 [27]: 2.2 µM
SMILES: COc1ccc(Cc2nc3c(C)cc(C(C)(C)C)c(O)c3[nH]2)cc1

- IC50 [28]: 5 µM
SMILES: Cc1ccc(O)c2nc(Cc3cccnc3)[nH]c12

- IC50 [29]: 1 µM
SMILES: Cc1ccc(O)c2[nH]c(Cc3ccc(Cl)cc3)nc12
